Here are results for 18 compounds from patent publication US20250340863A1, “POLYPEPTIDE-ENCODED LIBRARY AND SCREENING METHOD USING SAME” (WHOLESOME FUTURE LIMITED, priority 2022, published 2025).

This assay has as its target T1, HDAC6 (Homo sapiens, UniProt Q9UBN7).
T1 construct: made in house; host or cells: E. coli BL21 (DE3), pET-28a plasmid
T1 sequence (Q9UBN7 1-1215): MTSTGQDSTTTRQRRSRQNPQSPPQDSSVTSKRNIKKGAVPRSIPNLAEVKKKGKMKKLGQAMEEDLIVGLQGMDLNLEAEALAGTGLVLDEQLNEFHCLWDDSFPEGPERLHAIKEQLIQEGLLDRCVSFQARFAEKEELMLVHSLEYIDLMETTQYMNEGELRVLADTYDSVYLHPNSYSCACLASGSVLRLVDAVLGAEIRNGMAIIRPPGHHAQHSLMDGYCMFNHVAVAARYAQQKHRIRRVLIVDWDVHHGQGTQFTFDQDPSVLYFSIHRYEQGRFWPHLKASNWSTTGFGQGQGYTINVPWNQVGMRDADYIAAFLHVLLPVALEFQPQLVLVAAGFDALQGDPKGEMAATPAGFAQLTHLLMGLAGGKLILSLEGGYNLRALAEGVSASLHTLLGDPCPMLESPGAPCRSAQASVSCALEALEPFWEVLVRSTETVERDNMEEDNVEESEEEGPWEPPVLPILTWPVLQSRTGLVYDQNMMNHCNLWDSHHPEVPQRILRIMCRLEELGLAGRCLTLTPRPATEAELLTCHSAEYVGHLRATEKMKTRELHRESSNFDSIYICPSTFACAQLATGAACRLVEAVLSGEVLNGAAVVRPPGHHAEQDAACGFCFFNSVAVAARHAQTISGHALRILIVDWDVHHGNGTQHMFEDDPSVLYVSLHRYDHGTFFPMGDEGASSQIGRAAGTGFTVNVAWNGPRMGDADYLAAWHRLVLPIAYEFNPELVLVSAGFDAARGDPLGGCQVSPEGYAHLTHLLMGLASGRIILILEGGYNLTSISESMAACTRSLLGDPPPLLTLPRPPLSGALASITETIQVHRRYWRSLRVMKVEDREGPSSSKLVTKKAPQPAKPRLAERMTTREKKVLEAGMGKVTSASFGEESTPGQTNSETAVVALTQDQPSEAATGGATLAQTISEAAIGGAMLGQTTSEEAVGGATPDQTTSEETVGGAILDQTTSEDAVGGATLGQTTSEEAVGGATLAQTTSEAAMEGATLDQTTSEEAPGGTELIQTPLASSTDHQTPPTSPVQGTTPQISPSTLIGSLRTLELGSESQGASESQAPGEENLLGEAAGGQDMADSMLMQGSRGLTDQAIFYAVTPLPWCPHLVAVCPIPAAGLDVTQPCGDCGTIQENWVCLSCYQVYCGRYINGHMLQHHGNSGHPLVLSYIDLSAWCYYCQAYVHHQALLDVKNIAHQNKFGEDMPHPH
Description: HDAC6 enzyme inhibition, fluorescence assay. Conditions: for pIC50: 7 concentrations, 4-fold dilution from 250 nM, 4 hours substrate incubation at room temperature; for Hill Slope: Hill slope of fitted dose-effect curve (GraphPad Prism); for Emax: top of fitted dose-effect curve of inhibition rate (GraphPad Prism). The assay is classed as biochemical. The protocol:
The compounds to be tested were balanced to room temperature, and the compounds were diluted 4 times with DMSO in a 384-well plate, with a starting working concentration of 250 nM and a total of 7 concentration gradients. 250 nl of the diluted drug solution was transferred to the 384-well reaction plate using Echo 550, where 250 nl of DMSO was transferred to the control wells Max and Min wells: the HDAC6 enzyme stock solution was diluted to 1.67× with 1× enzyme reaction system buffer solution; the reaction substrate was diluted to 2.5× with 1× enzyme reaction system buffer solution: 15 μl of the above diluted enzyme working solution was added to each reaction well, and 15 μl of 1× enzyme reaction system buffer solution was added to the Min well. Incubate at room temperature for 15 min; add 10 μl of the above-diluted enzyme reaction substrate to each reaction well and incubate at room temperature for 4 hours to allow the reaction to proceed fully; add 3.5×Trypsin reaction stop solution to each reaction well and incubate at 37° C. for 90 min to terminate the reaction; read the fluorescence signal at the end of the reaction on the microplate reader.
The calculation formula for the inhibition rate of the compound on HDAC6 is as follows:
Where […] is the mean of the detection values of the sample wells of each Max well (only DMSO and enzyme); […] represents the average value of the detection values of each Min well (without enzyme); Sample Signal is the mean of the detection values of each compound-treated well. The dose-effect curve was fitted using GraphPad Prism software, and the IC50 of the compound on enzyme inhibition was calculated (as shown in Table 5).

pIC50: −log10 of the molar value.

The pIC50 is the negative decadic logarithm of the IC50, by convention in mol/L. A lower pIC50 goes with a large IC50. One may read the Emax as the maximal effect, on the per cent scale that the assay sets.

As for `COc1cccc(COC(=O)c2cccc(CCOC(=O)C3CCC(O)CN3C(=O)C(=O)C3=Cc4ccccc4C3)c2)c1` (stereo not drawn) [Compound 17], the pIC50 is 9.24, the “Hill Slope” value came out at 1.1 and the Emax turned out to be 102%.
For the compound `Cc1ccc(C(=O)C(=O)N2CC(O)SCC2C(=O)OCc2cc(C(=O)OCc3cccc(Br)c3)ccn2)cc1` (stereo not drawn) [Compound 6], the negative logarithm of the IC50 (pIC50) is 9.12, the “Hill Slope” value was 1.1 and the maximal effect (Emax) was 100%.
As to `Cc1ccc(S(=O)(=O)N2CC(O)CCC2C(=O)OCCc2cccc(C(=O)OCc3ccccc3Cl)c2)cc1` (stereo not drawn) [Compound 10], the pIC50 is 8.82, the “Hill Slope” value is 0.8 and the Emax came to 98%.
For the compound `O=C(C(=O)N1CC(O)CCC1C(=O)OCCC1CCCCC1C(=O)OCc1cccc(Br)c1)c1cc2ccccc2[nH]1` (stereo not drawn) [Compound 11], the pIC50 was 9.64, the “Hill Slope” value came out at 1 and the maximal response (Emax) was found to be 100%.
Regarding `CC(COC(=O)c1cccc(COC(=O)C2COC(O)CN2C(=O)C(=O)C2=Cc3ccccc3C2)c1)c1ccccc1` (stereo not drawn) [Compound 16], the pIC50 was 8.41, the “Hill Slope” value turned out to be 1 and the maximum response (Emax) was determined as 99%.
As for `O=C(C(=O)N1CC(O)CCC1C(=O)OCCc1ccccc1C(=O)OCCc1ccccc1)c1ccccn1` (stereo not drawn) [Compound 13], the pIC50 was 8.66, the “Hill Slope” value worked out at 1.6 and the maximum response (Emax) is 98%.
`Cc1ccccc1S(=O)(=O)N1CC(O)CCC1C(=O)OCCc1cnccc1C(=O)OCc1ccncc1` (stereo not drawn) [Compound 4]: the negative-log IC50 (pIC50) was 7.88, the “Hill Slope” value is listed as 1.06 and the Emax was 91.4%.
Turning to `O=C(OCc1ccccn1)C1CCC(COC(=O)C2C[Se]C(O)CN2S(=O)(=O)c2ccccc2)CC1` (stereo not drawn) [Compound 2], the negative-log IC50 (pIC50) was 9.07, the “Hill Slope” value amounted to 1.1 and the Emax is 99%.
For `O=C(OCC1CCCCC1)c1ccnc(CCOC(=O)C2C[Se]C(O)CN2C(=O)C(=O)c2cccc3ccccc23)c1` (stereo not drawn) [Compound 14], in that order: 6.88, 0.8 and 100%.
For `O=C(C(=O)N1CC(O)SCC1C(=O)OCCC1CCCCC1C(=O)OCc1ccccn1)c1cc2ccccc2[nH]1` (stereo not drawn) [Compound 19], the negative-log IC50 (pIC50) is 8.59, the “Hill Slope” value turned out to be 1.6 and the Emax amounted to 96%.
Taken in the same sequence, the figures for `O=C(OCc1ccncc1)c1ccnc(CCOC(=O)C2CSC(O)CN2C(=O)C(=O)c2ccccn2)c1` (stereo not drawn) [Compound 18] were 9.04, 1 and 102%.
As to `O=C(OCC1CCCCC1)c1ccc(COC(=O)C2CCC(O)CN2C(=O)C(=O)c2cccc3ccccc23)nc1` (stereo not drawn) [Compound 15], the pIC50 is 8.22, the “Hill Slope” value is 0.8638 and the maximal response (Emax) is 106%.
On to `O=C(OCc1ccccc1Cl)c1ccnc(CCOC(=O)C2CCC(O)CN2C(=O)C(=O)c2ccccn2)c1` (stereo not drawn) [Compound 20], for which the pIC50 was 7.27, the “Hill Slope” value is recorded as 0.83 and the Emax was found to be 99.3%.
With `COc1ccc(COC(=O)c2ccc(CCOC(=O)C3C[Se]C(O)CN3C(=O)C(=O)c3ccncc3)nc2)cc1` (stereo not drawn) [Compound 12], the negative-log IC50 (pIC50) was 9.39, the “Hill Slope” value stood at 1.1 and the Emax is 101%.
`Cc1ccc(S(=O)(=O)N2CC(O)CCC2C(=O)OCc2ccc(C(=O)OCc3ccccc3Cl)cn2)cc1` (stereo not drawn) [Compound 9]: the negative logarithm of the IC50 (pIC50) was 7.71, the “Hill Slope” value is given as 0.8205 and the Emax worked out at 96.4%.
For `O=C(C(=O)N1CC(O)OCC1C(=O)OCCC1CCCCC1C(=O)OCc1ccc(Cl)cc1)c1ccccn1` (stereo not drawn) [Compound 7], the pIC50 was 9.07, the “Hill Slope” value was found to be 0.9 and the maximal response (Emax) amounted to 102%.
`Cc1ccccc1C(=O)C(=O)N1CC(O)OCC1C(=O)OCc1ccccc1C(=O)OCc1ccccc1Cl` (stereo not drawn) [Compound 8]: the negative logarithm of the IC50 (pIC50) is 8.54, the “Hill Slope” value was 1.5 and the Emax turned out to be 101%.
Turning to `O=C(OCC1CCCCC1)c1ccc(COC(=O)C2COC(O)CN2C(=O)C(=O)c2cc3ccccc3[nH]2)nc1` (stereo not drawn) [Compound 1], the pIC50 is 9.20, the “Hill Slope” value is listed as 1.2 and the Emax came out at 96%.
